The values below come from PubChem BioAssay (NCI).

Among the test systems are A549 NSCLC; BT-549 breast; CCRF-CEM leukemia; DU-145 prostate; HL-60(TB) leukemia; K-562 leukemia; KM12 colon; NCI-H23 lung; SK-MEL-28 melanoma; SR leukemia.
Holding throughout (assay): growth of human tumour cells (NCI), 48 h

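48-hour exposure; five concentrations; linearly interpolated endpoints. Abbreviation: GI50, concentration required for 50% inhibition of growth. Definition used: TGI = concentration required for complete inhibition of growth.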 Bounds are passed on as bounds.

Regarding `COc1ccc2cc(-c3cnc4nonc4n3)ccc2c1`, the GI50 in the experiment with A549 NSCLC is 3.33 µM; in the experiment on BT-549 breast, 4.39 µM; in the experiment on CCRF-CEM leukemia it was 1.62 µM; in the experiment with DU-145 prostate it was 24.4 µM; in the experiment on HL-60(TB) leukemia, 0.803 µM; in the experiment on K-562 leukemia it was 0.468 µM. The GI50 with KM12 colon was 2.03 µM; in the experiment on NCI-H23 lung it was 4.49 µM; with SK-MEL-28 melanoma it was over 100 µM; in the experiment on SR leukemia, 0.423 µM. Moreover, the TGI in the experiment on A549 NSCLC is over 100 µM; in the experiment with BT-549 breast it was over 100 µM; in the experiment on CCRF-CEM leukemia, over 100 µM; in the experiment on DU-145 prostate it was over 100 µM; in the experiment with HL-60(TB) leukemia it was 9.03 µM; in the experiment with K-562 leukemia it was over 100 µM. Moreover, the TGI in the experiment on KM12 colon, in the experiment with NCI-H23 lung, with SK-MEL-28 melanoma and in the experiment with SR leukemia was over 100 µM each time.
